# Experimental data from patent US9873704B2, “Heterocyclic compounds and their uses” (Amgen Inc., priority 2009, dated 2018).
# Test system: model of systemic lupus erythematosis
# Assay: not given
# Details: in vivo; cited from earlier work
row,Compound,onset of disease in a model of systemic lupus erythematosis
1,O=C1NC(=O)/C(=C\c2ccc3nccnc3c2)S1 [AS 605240],delay onset of disease

# Test system: mouse model of rheumatoid arthritis
# Assay: not given
# Details: in vivo; cited from earlier work
row,Compound,efficacy in a mouse model of rheumatoid arthritis
1,O=C1NC(=O)/C(=C\c2ccc3nccnc3c2)S1 [AS 605240],efficacious

# Target: T1, PI3Kδ (Homo sapiens, UniProt O00329)
# T1 construct: Full length p110 subunits of PI3k α, β and δ, N-terminally labeled with polyHis tag; polyHis (N); made in house; host or cells: Sf9 insect cells (baculovirus)
# Assay: PI3Kδ Alphascreen assay
# Type: biochemical
# Details: not given
# Experimental: Full length p110 subunits of PI3k α, β and δ, N-terminally labeled with polyHis tag, were coexpressed with p85 with Baculo virus expression vectors in sf9 insect cells. P110/p85 heterodimers were purified by sequential Ni-NTA, Q-HP, Superdex-100 chromatography. Purified α, β and δ isozymes were stored at −20° C. in 20 mM Tris, pH 8, 0.2M NaCl, 50% glycerol, 5 mM DTT, 2 mM Na cholate. […] The γ isozyme was purified by sequential Ni-NTA, Superdex-200, Q-HP chromatography. The γ isozyme was stored frozen at −80° C. in NaH2PO4, pH 8, 0.2M NaCl, 1% ethylene glycol, 2 mM β-mercaptoethanol.
# A PI3K Alphascreen® assay (PerkinElmer, Waltham, Mass.) was used to measure the activity of a panel of four phosphoinositide 3-kinases: PI3Kα, PI3Kβ, PI3Kγ, and PI3Kδ. Enzyme reaction buffer was prepared using sterile water (Baxter, Deerfield, Ill.) and 50 mM Tris HCl pH 7, 14 mM MgCl2, 2 mM sodium cholate, and 100 mM NaCl. 2 mM DTT was added fresh the day of the experiment. The Alphascreen buffer was made using sterile water and 10 mM Tris HCl pH 7.5, 150 mM NaCl, 0.10% Tween 20, and 30 mM EDTA. 1 mM DTT was added fresh the day of the experiment. Compound source plates used for this assay were 384-well Greiner clear polypropylene plates containing test compounds at 5 mM and diluted 1:2 over 22 concentrations. Columns 23 and 24 contained only DMSO as these wells comprised the positive and negative controls, respectively. Source plates were replicated by transferring 0.5 uL per well into 384-well Optiplates (PerkinElmer, Waltham, Mass.).
# Each PI3K isoform was diluted in enzyme reaction buffer to 2× working stocks. […] PI(4,5)P2 (Echelon Biosciences, Salt Lake City, Utah) was diluted to 10 μM and ATP was diluted to 20 μM. This 2× stock was used in the assays for PI3Kα and PI3Kβ. For assay of PI3Kγ and PI3Kδ, PI(4,5)P2 was diluted to 10 μM and ATP was diluted to 8 μM to prepare a similar 2× working stock. Alphascreen reaction solutions were made using beads from the anti-GST Alphascreen kit (PerkinElmer, Waltham, Mass.). Two 4× working stocks of the Alphascreen reagents were made in Alphascreen reaction buffer. In one stock, biotinylated-IP4 (Echelon Biosciences, Salt Lake City, Utah) was diluted to 40 nM and streptavidin-donor beads were diluted to 80 μg/mL. In the second stock, PIP3-binding protein (Echelon Biosciences, Salt Lake City, Utah) was diluted to 40 nM and anti-GST-acceptor beads were diluted to 80 μg/mL.
# 10 μL/well of the appropriate substrate 2× stock (containing 20 μM ATP for the PI3Kα and β assays and containing 8 μM ATP for the PI3Kγ and δ assays) was then added to Columns 1-24 of all plates. Plates were then incubated at room temperature for 20 minutes. In the dark, 10 μL/well of the donor bead solution was added to columns 1-24 of the plates to quench the enzyme reaction. The plates were incubated at room temperature for 30 minutes. Still in the dark, 10 μL/well of the acceptor bead solution was added to columns 1-24 of the plates. The plates were then incubated in the dark for 1.5 hours. The plates were read on an Envision multimode Plate Reader (PerkinElmer, Waltham, Mass.) using a 680 nm excitation filter and a 520-620 nm emission filter.
# T1 sequence (O00329 whole entry): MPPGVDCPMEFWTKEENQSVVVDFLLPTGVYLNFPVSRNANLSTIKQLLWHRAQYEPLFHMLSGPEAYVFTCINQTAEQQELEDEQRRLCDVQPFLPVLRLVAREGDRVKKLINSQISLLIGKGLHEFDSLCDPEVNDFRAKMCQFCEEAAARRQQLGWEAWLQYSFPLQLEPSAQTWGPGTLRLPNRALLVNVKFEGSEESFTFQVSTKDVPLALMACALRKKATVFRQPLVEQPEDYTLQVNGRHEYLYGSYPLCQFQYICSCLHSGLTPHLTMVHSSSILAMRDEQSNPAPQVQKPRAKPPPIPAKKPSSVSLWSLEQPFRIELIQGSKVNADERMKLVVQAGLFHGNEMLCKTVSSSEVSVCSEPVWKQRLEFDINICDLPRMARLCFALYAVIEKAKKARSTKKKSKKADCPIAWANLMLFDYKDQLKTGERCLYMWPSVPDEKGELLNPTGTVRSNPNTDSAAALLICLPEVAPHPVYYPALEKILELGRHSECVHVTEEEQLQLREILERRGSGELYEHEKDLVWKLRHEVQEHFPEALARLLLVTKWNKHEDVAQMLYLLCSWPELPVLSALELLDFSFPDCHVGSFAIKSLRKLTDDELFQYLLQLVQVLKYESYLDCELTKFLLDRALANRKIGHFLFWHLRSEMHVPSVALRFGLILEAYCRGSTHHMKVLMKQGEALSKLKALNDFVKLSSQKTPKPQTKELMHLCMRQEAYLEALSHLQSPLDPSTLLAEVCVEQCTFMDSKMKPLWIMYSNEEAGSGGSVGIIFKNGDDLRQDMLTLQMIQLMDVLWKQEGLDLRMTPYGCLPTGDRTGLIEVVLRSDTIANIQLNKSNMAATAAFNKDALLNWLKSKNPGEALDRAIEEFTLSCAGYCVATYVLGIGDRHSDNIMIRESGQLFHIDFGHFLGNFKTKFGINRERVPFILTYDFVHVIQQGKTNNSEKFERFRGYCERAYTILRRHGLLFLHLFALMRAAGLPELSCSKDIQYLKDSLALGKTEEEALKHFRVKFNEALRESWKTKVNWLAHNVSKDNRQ
# T1 sequence (P27986 whole entry partner): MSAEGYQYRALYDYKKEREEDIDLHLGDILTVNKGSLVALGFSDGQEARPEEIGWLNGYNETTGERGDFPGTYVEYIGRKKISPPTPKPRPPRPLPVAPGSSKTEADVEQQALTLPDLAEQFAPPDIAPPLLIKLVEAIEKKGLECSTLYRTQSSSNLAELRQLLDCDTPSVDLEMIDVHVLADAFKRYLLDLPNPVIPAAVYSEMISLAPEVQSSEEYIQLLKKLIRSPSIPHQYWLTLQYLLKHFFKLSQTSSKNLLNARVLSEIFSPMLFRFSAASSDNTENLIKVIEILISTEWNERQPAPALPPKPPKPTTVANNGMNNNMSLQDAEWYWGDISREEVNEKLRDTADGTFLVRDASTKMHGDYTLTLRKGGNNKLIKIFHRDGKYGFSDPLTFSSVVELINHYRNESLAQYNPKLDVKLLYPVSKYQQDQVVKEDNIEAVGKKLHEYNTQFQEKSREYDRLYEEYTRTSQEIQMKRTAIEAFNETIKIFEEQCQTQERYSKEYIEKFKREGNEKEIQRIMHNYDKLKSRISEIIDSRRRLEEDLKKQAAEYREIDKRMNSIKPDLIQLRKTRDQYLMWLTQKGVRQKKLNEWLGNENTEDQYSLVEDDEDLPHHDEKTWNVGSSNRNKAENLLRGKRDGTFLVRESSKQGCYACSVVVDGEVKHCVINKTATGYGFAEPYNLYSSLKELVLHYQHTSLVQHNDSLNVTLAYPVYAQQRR
row,Compound,Ki [nM]
1,CC(Nc1ncnc(N)c1C#N)c1nc2ccc(F)cc2c(N2CCOCC2)c1-c1ccccn1 (stereo not drawn) [4-amino-6-(1-(6-fluoro-4-morpholino-3-(pyridin-2-yl)quinolin-2-yl)ethyl-amino)pyrimidine-5-carbonitrile],1.19
2,CSc1c(-c2ccccc2)c(C(C)Nc2ncnc(N)c2C#N)nc2ccc(F)cc12 (stereo not drawn) [4-amino-6-((1-(6-fluoro-4-(methylsulfanyl)-3-phenyl-2-quinolinyl)ethyl)amino)-5-pyrimidinecarbonitrile],2.4
3,C[C@@H](Nc1ncnc(N)c1C#N)c1nc2cccc(Cl)c2cc1-c1ccccn1 [4-amino-6-(((1R)-1-(5-chloro-3-(2-pyridinyl)-2-quinolinyl)ethyl)amino)-5-pyrimidinecarbonitrile],57.9
4,C[C@@H](Nc1ncnc(N)c1C#N)c1nc2cccc(F)c2c(S(C)(=O)=O)c1-c1ccccc1 [4-amino-6-(((1R)-1-(5-fluoro-4-(methylsulfonyl)-3-phenyl-2-quinolinyl)ethyl)amino)-5-pyrimidinecarbonitrile],466
5,C[C@H](Nc1ncnc(N)c1C#N)c1nc2ccc(F)cc2c(C(=O)N2CCOCC2)c1-c1ccccc1 [4-amino-6-(((1S)-1-(6-fluoro-4-(4-morpholinylcarbonyl)-3-phenyl-2-quinolinyl)ethyl)amino)-5-pyrimidinecarbonitrile],0.505
6,C[C@H](Nc1ncnc(N)c1C#N)c1nc2ccc(F)cc2c(C(=O)N2CC[C@H](O)C2)c1-c1ccccc1 [4-amino-6-(((1S)-1-(6-fluoro-4-(((3S)-3-hydroxy-1-pyrrolidinyl)carbonyl)-3-phenyl-2-quinolinyl)ethyl)amino)-5-pyrimidinecarbonitrile],0.657
7,C[C@H](Nc1ncnc(N)c1C#N)c1nc2ccc(F)cc2c(S(C)(=O)=O)c1-c1ccccc1 [4-amino-6-(((1S)-1-(6-fluoro-4-(methylsulfonyl)-3-phenyl-2-quinolinyl)ethyl)amino)-5-pyrimidinecarbonitrile],0.741
8,"CC(Nc1ncnc(N)c1C#N)c1nc2cccc(Cl)c2cc1-c1ccccn1 [4-amino-6-(((1S, 1R)-1-(5-chloro-3-(2-pyridinyl)-2-quinolinyl)ethyl)-amino)-5-pyrimidinecarbonitrile]",1.6
9,CC(Nc1ncnc(N)c1C#N)c1nc2ccc(F)cc2c(CN2CCOCC2)c1-c1ccccc1 (stereo not drawn) [4-amino-6-((-1-(6-fluoro-4-(4-morpholinylmethyl)-3-phenyl-2-quinolinyl)ethyl)amino)-5-pyrimidinecarbonitrile],1.31
10,"C[C@H](c1nc2ccc(F)cc2cc1-c1ccccn1)n1nc(C#N)c2c(N)ncnc21 [(R)-4-amino-1-(1-(6-fluoro-3-(pyridin-2-yl)quinolin-2-yl)ethyl)-1H-pyrazolo[3,4-d]pyrimidine-3-carbonitrile]",320
11,COc1c(-c2ccccc2)c([C@@H](C)Nc2ncnc(N)c2C#N)nc2ccc(F)cc12 [(R)-4-amino-6-(1-(6-fluoro-4-methoxy-3-phenylquinolin-2-yl)ethylamino)pyrimidine-5-carbonitrile],271
12,C[C@@H](Nc1ncnc2[nH]cnc12)c1nc2ccc(F)cc2cc1-c1ccccn1 [(R)—N-(1-(6-fluoro-3-(pyridin-2-yl)quinolin-2-yl)ethyl)-9H-purin-6-amine],217
13,C[C@@H](Nc1ncnc2[nH]cnc12)c1nc2ccc(F)cc2c(S(C)(=O)=O)c1-c1ccccc1 [(R)—N-(1-(6-fluoro-4-(methylsulfonyl)-3-phenylquinolin-2-yl)ethyl)-9H-purin-6-amine],410
14,C[C@H](Nc1ncnc(N)c1C#N)c1nc2ccc(F)cc2c(C(=O)NCCO)c1-c1ccccn1 [(S)-2-(1-(6-Amino-5-cyanopyrimidin-4-ylamino)ethyl)-6-fluoro-N-(2-hydroxyethyl)-3-(pyridin-2-yl)quinoline-4-carboxamide],7.57
15,C[C@H](Nc1ncnc(N)c1C#N)c1nc2ccc(F)cc2c(C(=O)NC2CC2)c1-c1ccccn1 [(S)-2-(1-(6-Amino-5-cyanopyrimidin-4-ylamino)ethyl)-N-cyclopropyl-6-fluoro-3-(pyridin-2-yl)quinoline-4-carboxamide],1.64
16,"COc1c(-c2cc(F)cc(F)c2)c([C@H](C)Nc2ncnc(N)c2C#N)nc2ccc(F)cc12 [(S)-4-Amino-6-(1-(3-(3,5-difluorophenyl)-6-fluoro-4-methoxyquinolin-2-yl)-ethylamino)pyrimidine-5-carbonitrile]",68.4
17,C[C@H](Nc1ncnc(N)c1C#N)c1nc2cccc(F)c2c(S(C)(=O)=O)c1-c1ccccc1 [(S)-4-Amino-6-(1-(5-fluoro-4-(methylsulfonyl)-3-phenylquinolin-2-yl)ethylamino)pyrimidine-5-carbonitrile],1.3
18,C[C@H](Nc1ncnc(N)c1C#N)c1nc2ccc(F)cc2cc1-c1cccc(S(C)(=O)=O)n1 [(S)-4-Amino-6-(1-(6-fluoro-3-(6-(methylsulfonyl)pyridin-2-yl)quinolin-2-yl)ethylamino)pyrimidine-5-carbonitrile],130
19,"C[C@@H](c1nc2ccc(F)cc2cc1-c1ccccn1)n1nc(C#N)c2c(N)ncnc21 [(S)-4-amino-1-(1-(6-fluoro-3-(pyridin-2-yl)quinolin-2-yl)ethyl)-1H-pyrazolo[3,4-d]pyrimidine-3-carbonitrile]",7.67
20,COc1c(-c2ccccc2)c([C@H](C)Nc2ncnc(N)c2C#N)nc2ccc(F)cc12 [(S)-4-amino-6-(1-(6-fluoro-4-methoxy-3-phenylquinolin-2-yl)ethylamino)pyrimidine-5-carbonitrile],1.18
21,C[C@H](Nc1ncnc2[nH]cnc12)c1nc2ccc(F)cc2cc1-c1ccccn1 [(S)—N-(1-(6-Fluoro-3-(pyridin-2-yl)quinolin-2-yl)ethyl)-9H-purin-6-amine],4.15
22,C[C@H](Nc1ncnc2[nH]cnc12)c1nc2ccc(F)cc2c(S(C)(=O)=O)c1-c1ccccc1 [(S)—N-(1-(6-fluoro-4-(methylsulfonyl)-3-phenylquinolin-2-yl)ethyl)-9H-purin-6-amine],1.12
23,COC(=O)c1c(-c2ccccc2)c(C(C)Nc2ncnc(N)c2C#N)nc2ccc(F)cc12 (stereo not drawn) [Methyl 2-(1-(6-amino-5-cyanopyrimidin-4-ylamino)ethyl)-6-fluoro-3-phenylquinoline-4-carboxylate],1.56
24,"CC(Nc1cc(N)ncn1)c1nc2ccc(F)cc2cc1-c1ccccn1 (stereo not drawn) [N4-(1-(6-Fluoro-3-(pyridin-2-yl)quinolin-2-yl)ethyl)pyrimidine-4,6-diamine]",3730
25,CC(Nc1ncnc2[nH]cnc12)c1nc2cccc(F)c2c(S(C)(=O)=O)c1-c1ccccc1 (stereo not drawn) [N-(1-(5-Fluoro-4-(methylsulfonyl)-3-phenylquinolin-2-yl)ethyl)-9H-purin-6-amine],2.24
26,CC(Nc1ccncn1)c1nc2ccc(F)cc2cc1-c1ccccn1 (stereo not drawn) [N-(1-(6-Fluoro-3-(pyridin-2-yl)quinolin-2-yl)ethyl)pyrimidin-4-amine],11600
27,CC(Nc1ncnc2[nH]cnc12)c1nc2ccc(F)cc2c(S(C)(=O)=O)c1-c1ccccc1 (stereo not drawn) [N-(1-(6-Fluoro-4-(methylsulfonyl)-3-phenylquinolin-2-yl)ethyl)-9H-purin-6-amine],2.34
28,"C[C@@H](Nc1ccnc(N)n1)c1nc2ccc(F)cc2cc1-c1ccccn1 [N~4~-((1R)-1-(6-fluoro-3-(2-pyridinyl)-2-quinolinyl)ethyl)-2,4-pyrimidinediamine]",5520
